Measurements as given in US11304907B2, “Pharmaceutical compositions containing a DGAT1 inhibitor” (Novartis AG, priority 2010, dated 2022).
Structures can show the parent of a compound that is named as a salt.

Columns and labels:
[1] = Physicochemical properties of the drug substance
Text: However, the compound of formula (I), or a pharmaceutically acceptable salt thereof, in particular the sodium salt thereof, is a drug substance which is difficult to formulate due to its physicochemical properties. […] It is also plate like, very fluffy, and sticky in nature.

[2] = Disintegrant compatibility / stress storage; type: physicochemical; conditions: due to the presence of residual formaldehyde
Procedure: It can be seen from the above table that core tablets formulated with Cross linked polyvinyl pyrollidone (PVP-XL) show a slower release compared to the Sodium Starch Glycollate (SSG), and Croscarmellose Sodium (Ac-Di-Sol) based formulations. […] Formulations containing Croscarmellose Sodium (Ac-Di-Sol) were also found to turn to yellow when prepared and exposed to 50° C. dry as well as 50° C./75% […] humidity for 4 weeks.

moisture uptake ([1]; at 95% relative humidity): high moisture uptake | hygroscopicity ([1]; drug substance, sodium salt): hygroscopic | solubility ([1]; drug substance, sodium salt): poorly soluble | compatibility with Cross linked polyvinyl pyrollidone (PVP-XL) [2]: incompatible
Compound: O=C(O)C[C@H]1CC[C@H](c2ccc(-c3ccc(Nc4ccc(C(F)(F)F)nc4)cn3)cc2)CC1 [compound of formula (II), trans-(4-{4-[5-(6-Trifluoromethyl-pyridin-3-ylamino)-pyridin-2-yl]-phenyl}-cyclohexyl)-acetic acid, sodium salt]
